Molecules are shown by their SMILES. Structures can show the parent of a compound that is named as a salt. Where two headings read alike, the source gives them in different places. Bounds are passed on as bounds.

The nature of series [1]: Verification of the solubility of various local anesthetics in the sustained-release drug delivery system. The conditions noted are these: 4° C., 24 hours, 15-20 mg/ml. Format: physicochemical. The method, then: The 12 local anesthetics were each added into the selected drug delivery systems, and the dissolution process of the drugs was observed (norm: 15-20 mg/ml, observed at 25° C. for 24 hours with recordation; or observed at 4° C. for 24 hours with recordation).

In series [2] the test system is patients. The conditions noted are these: cited from earlier work.
Series [3] concerns plasma proteins. The conditions noted are these: concentration-dependent; cited from earlier work.
The conditions of series [4]: cited from earlier work.
A short description of series [5]: Solubility tests of ropivacaine free base and corresponding salts. It counts as physicochemical. The text has this:
If a drug dissolved completely, addition of this drug was continued until saturation.

The nature of series [6]: Formulation experiment for sustained-release formulation delivery system. Conditions: for Solubility: in ethanol, benzyl alcohol, benzyl benzoate, and ethyl lactate. It counts as physicochemical. An excerpt: Detailed experimental procedures were similar to those in Experimental Example 2. As shown in the experimental results, part of the drug delivery system combinations that may be used in the formula of the sustained-release formulation delivery system is as follows: […]

A short description of series [7]: In vitro dissolution stability of the drug formulations. Format: physicochemical. Conditions: compared with ropivacaine free base.
Series [8] is described as follows: Compound compositions: dezocine and parecoxib in the drug delivery systems. Format: physicochemical. Conditions: prescribed compositions of Table IV; 25° C. and 4° C., about 24 h.
Series [9] in a line: Structural stability of ropivacaine sustained-release formulations (content determination). Conditions: content determination after 30 days. It counts as physicochemical.
Setting [10] is: in glyceryl monoacetate, 25° C.
Where [11] appears, read: in tetrahydrofurfuryl polyethylene glycol ether, 25° C.

Turning to `CCN(CC)CCOC(=O)c1ccc(N)cc1` [procaine], the “solubility in the ethyl oleate/soybean oil drug delivery system” value in series [1] is “slightly precipitated”.

As to `CCCN1CCCC[C@H]1C(=O)Nc1c(C)cccc1C` [Ropivacaine, 1-propy 1-2,6-pipeco loxylidide laevo isomer], the “cardiac toxicity and safety” value in series [2] (0.1% ropivacaine versus 0.1% bupivacaine, elderly patients) was “relatively lower cardiac toxicity and higher safety in use”. Further, the “analgesic effect of continuous epidural infusion” value in [2] (0.1% ropivacaine, elderly patients after lower limb surgeries (Zonglin YANG et al.)) is listed as “comparable to that with 0.1% bupivacaine”. Moreover, the “transaxillary brachial plexus block” value in series [2] (0.375% ropivacaine versus 0.25% bupivacaine (Qihong ZHAO et al.)) is “faster onset, better efficacy, and fewer adverse effects as compared to 0.25% bupivacaine”. Also, the “local infiltration anesthetic analgesia” value in series [2] (human, in vivo) was “substantial and lasting analgesic effect with few adverse reactions”. Besides, in series [2] (human, one clinical injection), the analgesic duration entry is on record as “about 8 hours”. Besides, the “gynecologic post-operative patient-controlled analgesia” value in [2] (versus bupivacaine (Shunfu CHEN)) is reported as “more suitable for patient-controlled analgesic local anesthesia in gynecologic post-operative patients than bupivacaine”. Besides, in [3], the “association with plasma proteins” value is reported as 94%. In series [4] (epidural), the “epidural absorption, half-time of fast phase” value is reported as 14 min and the “epidural absorption, half-time of slow phase” value was 4 h. The steady distribution volume in series [4] (in vivo) is recorded as 47 L.

Turning to `CCCCNc1ccc(C(=O)OCCN(C)C)cc1` [tetracaine], the “solubility in the ethyl oleate/soybean oil drug delivery system” value in series [1] is “slightly precipitated”.

For orientation: Solubility means the concentration that dissolves in the medium under given conditions. For the molecule `CCCN1CCCC[C@H]1C(=O)Nc1c(C)cccc1C` [Ropivacaine hydrochloride], the Solubility in [5] (anhydrous ethanol, 25 °C, organic solvent or mixture, thermodynamic from solid, in anhydrous ethanol, read-out: Solubility) is 95 mg/mL; in series [5] (benzyl alcohol, 25 °C, organic solvent or mixture, thermodynamic from solid, in benzyl alcohol, read-out: Solubility), above 100 mg/mL; in series [5] (benzyl benzoate, 25 °C, organic solvent or mixture, thermodynamic from solid, in benzyl benzoate, read-out: Solubility) it was 2.5 mg/mL; in series [5] (castor oil, 25 °C, oil or lipid, thermodynamic from solid, in castor oil, read-out: Solubility), 1.7 mg/mL; in series [5] (corn oil, 25 °C, oil or lipid, thermodynamic from solid, in corn oil, read-out: Solubility), 2.5 mg/mL; in series [5] (ethyl lactate, 25 °C, organic solvent or mixture, thermodynamic from solid, in ethyl lactate, read-out: Solubility) it was 16.5 mg/mL. The Solubility in series [5] (ethyl oleate, 25 °C, oil or lipid, thermodynamic from solid, in ethyl oleate, read-out: Solubility) was determined as 2.2 mg/mL; in [5] (glyceryl monoacetate, 25 °C, organic solvent or mixture, thermodynamic from solid, in glyceryl monoacetate, read-out: Solubility) it was 30 mg/mL; in series [5] (in benzyl alcohol, 25° C.), 140 mg/mL; in series [5] (olive oil, 25 °C, oil or lipid, thermodynamic from solid, in olive oil, read-out: Solubility), 1.7 mg/mL; in series [5] (sesame oil, 25 °C, oil or lipid, thermodynamic from solid, in sesame oil, read-out: Solubility), 2 mg/mL; in [5] (soybean oil, 25 °C, oil or lipid, thermodynamic from solid, in soybean oil, read-out: Solubility), 2 mg/mL. The Solubility in [5] (tetrahydrofurfuryl polyethylene glycol ether, 25 °C, organic solvent or mixture, thermodynamic from solid, in tetrahydrofurfuryl polyethylene glycol ether, read-out: Solubility) stood at 9 mg/mL. Besides, the “solubility in mixed solvent” value in series [6] (mixture of benzyl benzoate with one of ethanol and benzyl alcohol) was “increased solubility”.

Consider `CCCN1CCCC[C@H]1C(=O)Nc1c(C)cccc1C.CS(=O)(=O)O` [Ropivacaine methansulfonate], for which, in [7], the “solubility in various prescribed compositions” value is recorded as “slightly poorer than that of ropivacaine free base”. Also, the Solubility in [5] (in anhydrous ethanol, 25° C.) is 320 mg/mL; in series [5] (in anhydrous ethanol, 25° C., listed as ropivacaine methansulfonate) it was “exceeding 190 mg/ml”; in [5] (in benzyl alcohol, 25° C.) it was 550 mg/mL; in series [5] (in benzyl alcohol, 25° C., listed as ropivacaine methansulfonate), “exceeding 190 mg/ml”; in series [5] (in benzyl benzoate, 25° C.) it was 2 mg/mL; in series [5] (in castor oil, 25° C.), 2 mg/mL. Also, the Solubility in series [5] (in corn oil, 25° C.) is 1.7 mg/mL; in series [5] (in ethyl lactate, 25° C.), 198 mg/mL; in series [5] (in ethyl lactate, 25° C., listed as ropivacaine methansulfonate), “exceeding 190 mg/ml”; in series [5] (in ethyl oleate, 25° C.), 2 mg/mL; in [5] (setting [10]), 50 mg/mL; in series [5] (in olive oil, 25° C.), 2 mg/mL. Besides, the Solubility in [5] (in sesame oil, 25° C.) was 1.7 mg/mL; in [5] (in soybean oil, 25° C.) it was 2.5 mg/mL; in [5] (setting [11]), 13.2 mg/mL. Moreover, in series [6], the “solubility in mixed solvent” value was “increased solubility”.

In the case of `C[C@@]12CCCCC[C@@H](Cc3ccc(O)cc31)[C@@H]2N` [dezocine], the Solubility entry in series [6] is “good solubility”; in [8], above 30 mg/mL.

Take `CCC(=O)NS(=O)(=O)c1ccc(-c2c(-c3ccccc3)noc2C)cc1` [parecoxib]: the results for the Solubility result in series [6] and in series [8] were “good solubility” and above 20 mg/mL, respectively.

Take `CCCN1CCCC[C@H]1C(=O)Nc1c(C)cccc1C` [Ropivacaine free base]: the “structural stability in various prescribed compositions” value in series [9] is “structurally stable and did not degrade”. For the same molecule, the Solubility in series [5] (in anhydrous ethanol, 25° C.) is 155 mg/mL; in series [5] (in anhydrous ethanol, 25° C., listed as ropivacaine free base), “exceeding 150 mg/ml”; in series [5] (in benzyl alcohol, 25° C.) it was 225 mg/mL; in [5] (in benzyl alcohol, 25° C., listed as ropivacaine free base), “exceeding 150 mg/ml”; in [5] (in benzyl benzoate, 25° C.), 70 mg/mL; in series [5] (in castor oil, 25° C.) it was 17 mg/mL. Moreover, the Solubility in series [5] (in corn oil, 25° C.) came to 9.4 mg/mL; in [5] (in ethyl lactate, 25° C.) it was 80 mg/mL; in series [5] (in ethyl oleate, 25° C.), 14.9 mg/mL; in series [5] (setting [10]) it was 18 mg/mL; in series [5] (in olive oil, 25° C.), 9.8 mg/mL; in series [5] (in sesame oil, 25° C.), 11.7 mg/mL. For the same molecule, the Solubility is 9.6 mg/mL in series [5] (in soybean oil, 25° C.) and 39.6 mg/mL in [5] (setting [11]). Also, in [6], the “solubility in mixed solvent” value is given as “increased solubility”.

(Values after patent US11364299B2, “Non-addictive analgesic sustained-release drug delivery system and preparation method thereof” (LIPONT PHARMACEUTICALS INC., priority 2013, dated 2022).)
